Assay results reported in ChEMBL document CHEMBL5678818, “Discovery of potent SOS1 inhibitors that block RAS activation via disruption of the RAS-SOS1 interaction” (Proc Natl Acad Sci U S A, 2019).

What was measured:
[1] = molecular target: T1, Serine/threonine-protein kinase Nek2 (Homo sapiens) (UniProt P51955); test: Inhibition of NEK2 (unknown origin) assessed as residual activity at 100 nM by KINOMEscan analysis relative to control
T1 sequence (whole entry): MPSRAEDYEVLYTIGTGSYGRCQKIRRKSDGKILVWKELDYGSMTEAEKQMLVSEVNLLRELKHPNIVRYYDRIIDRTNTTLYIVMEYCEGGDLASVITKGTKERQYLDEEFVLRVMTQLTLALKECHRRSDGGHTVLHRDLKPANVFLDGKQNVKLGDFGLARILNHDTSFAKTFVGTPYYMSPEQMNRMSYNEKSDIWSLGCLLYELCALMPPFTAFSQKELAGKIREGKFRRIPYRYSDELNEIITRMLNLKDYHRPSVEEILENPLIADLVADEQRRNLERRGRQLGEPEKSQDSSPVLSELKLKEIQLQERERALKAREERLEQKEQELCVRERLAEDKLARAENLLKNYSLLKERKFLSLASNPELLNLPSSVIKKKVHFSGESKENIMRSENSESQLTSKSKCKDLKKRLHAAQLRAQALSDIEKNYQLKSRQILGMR

[2] = test system: Tyrosine-protein kinase ABL1 (Homo sapiens), P00519 [H396P]; test: Inhibition of phosphorylated ABL1 H396P mutant (unknown origin) assessed as residual activity at 100 nM by KINOMEscan analysis relative to control
[3] = molecular target: Calcium/calmodulin-dependent protein kinase type 1G (Homo sapiens) (UniProt Q96NX5); test: Inhibition of CAMK1G (unknown origin) assessed as residual activity at 100 nM by KINOMEscan analysis relative to control
Chain of Calcium/calmodulin-dependent protein kinase type 1G (Homo sapiens) (Q96NX5 whole entry): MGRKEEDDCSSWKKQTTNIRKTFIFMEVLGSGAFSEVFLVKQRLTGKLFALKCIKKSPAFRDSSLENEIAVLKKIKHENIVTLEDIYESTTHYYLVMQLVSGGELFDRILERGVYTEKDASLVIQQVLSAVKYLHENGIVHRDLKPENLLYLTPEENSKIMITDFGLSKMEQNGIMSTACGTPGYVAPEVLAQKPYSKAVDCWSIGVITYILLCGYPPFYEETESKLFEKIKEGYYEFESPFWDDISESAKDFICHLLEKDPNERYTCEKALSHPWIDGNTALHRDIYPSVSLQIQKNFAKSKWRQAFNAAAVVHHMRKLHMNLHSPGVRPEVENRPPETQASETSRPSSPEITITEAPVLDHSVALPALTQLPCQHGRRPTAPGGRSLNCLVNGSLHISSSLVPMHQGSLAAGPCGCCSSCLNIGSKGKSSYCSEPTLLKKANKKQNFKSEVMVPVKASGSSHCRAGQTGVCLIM

[4] = molecular target: Serine/threonine-protein kinase pim-2 (Homo sapiens) (UniProt Q9P1W9); test: Inhibition of PIM2 (unknown origin) assessed as residual activity at 100 nM by KINOMEscan analysis relative to control
Chain of Serine/threonine-protein kinase pim-2 (Homo sapiens) (Q9P1W9 whole entry, looked up): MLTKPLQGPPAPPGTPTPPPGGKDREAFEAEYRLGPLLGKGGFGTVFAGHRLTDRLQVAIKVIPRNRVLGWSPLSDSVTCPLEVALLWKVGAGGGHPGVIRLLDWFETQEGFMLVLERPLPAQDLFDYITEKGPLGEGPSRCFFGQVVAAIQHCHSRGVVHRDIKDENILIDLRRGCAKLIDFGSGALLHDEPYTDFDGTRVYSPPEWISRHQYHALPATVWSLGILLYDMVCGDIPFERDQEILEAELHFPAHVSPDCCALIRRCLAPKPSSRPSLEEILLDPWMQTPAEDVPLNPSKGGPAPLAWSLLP

[5] = test system: Tyrosine-protein kinase ABL1 (Homo sapiens), P00519 [Q252H]; test: Inhibition of phosphorylated ABL1 Q252H mutant (unknown origin) assessed as residual activity at 100 nM by KINOMEscan analysis relative to control
Homo sapiens = species on record: Homo sapiens; test: Inhibition of N-terminal GST-tagged recombinant human SOS1 H905A mutant (564 to 1049 residues) expressed in Escherichia coli assessed as reduction in KRAS G12C mutant activation at 10 uM by HTRF analysis relative to control
[6] = molecular target: MAP kinase-interacting serine/threonine-protein kinase 1 (Homo sapiens) (UniProt Q9BUB5); test: Inhibition of MKNK1 (unknown origin) assessed as residual activity at 100 nM by KINOMEscan analysis relative to control
Chain of MAP kinase-interacting serine/threonine-protein kinase 1 (Homo sapiens) (Q9BUB5 whole entry, looked up): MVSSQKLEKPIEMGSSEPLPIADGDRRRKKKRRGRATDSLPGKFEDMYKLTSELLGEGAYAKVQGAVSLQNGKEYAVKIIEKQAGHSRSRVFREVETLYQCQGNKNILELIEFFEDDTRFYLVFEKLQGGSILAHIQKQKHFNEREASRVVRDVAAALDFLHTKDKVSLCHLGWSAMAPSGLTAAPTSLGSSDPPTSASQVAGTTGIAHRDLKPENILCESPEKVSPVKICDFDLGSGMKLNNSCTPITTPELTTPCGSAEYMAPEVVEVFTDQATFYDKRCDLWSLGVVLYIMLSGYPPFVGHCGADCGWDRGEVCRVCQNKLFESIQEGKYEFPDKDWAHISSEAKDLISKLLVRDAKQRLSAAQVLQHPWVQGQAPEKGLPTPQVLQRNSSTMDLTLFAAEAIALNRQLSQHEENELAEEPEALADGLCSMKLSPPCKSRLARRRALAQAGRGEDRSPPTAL

[7] = molecular target: Homeodomain-interacting protein kinase 1 (Homo sapiens) (UniProt Q86Z02); test: Inhibition of HIPK1 (unknown origin) assessed as residual activity at 100 nM by KINOMEscan analysis relative to control
Chain of Homeodomain-interacting protein kinase 1 (Homo sapiens) (Q86Z02 whole entry, looked up): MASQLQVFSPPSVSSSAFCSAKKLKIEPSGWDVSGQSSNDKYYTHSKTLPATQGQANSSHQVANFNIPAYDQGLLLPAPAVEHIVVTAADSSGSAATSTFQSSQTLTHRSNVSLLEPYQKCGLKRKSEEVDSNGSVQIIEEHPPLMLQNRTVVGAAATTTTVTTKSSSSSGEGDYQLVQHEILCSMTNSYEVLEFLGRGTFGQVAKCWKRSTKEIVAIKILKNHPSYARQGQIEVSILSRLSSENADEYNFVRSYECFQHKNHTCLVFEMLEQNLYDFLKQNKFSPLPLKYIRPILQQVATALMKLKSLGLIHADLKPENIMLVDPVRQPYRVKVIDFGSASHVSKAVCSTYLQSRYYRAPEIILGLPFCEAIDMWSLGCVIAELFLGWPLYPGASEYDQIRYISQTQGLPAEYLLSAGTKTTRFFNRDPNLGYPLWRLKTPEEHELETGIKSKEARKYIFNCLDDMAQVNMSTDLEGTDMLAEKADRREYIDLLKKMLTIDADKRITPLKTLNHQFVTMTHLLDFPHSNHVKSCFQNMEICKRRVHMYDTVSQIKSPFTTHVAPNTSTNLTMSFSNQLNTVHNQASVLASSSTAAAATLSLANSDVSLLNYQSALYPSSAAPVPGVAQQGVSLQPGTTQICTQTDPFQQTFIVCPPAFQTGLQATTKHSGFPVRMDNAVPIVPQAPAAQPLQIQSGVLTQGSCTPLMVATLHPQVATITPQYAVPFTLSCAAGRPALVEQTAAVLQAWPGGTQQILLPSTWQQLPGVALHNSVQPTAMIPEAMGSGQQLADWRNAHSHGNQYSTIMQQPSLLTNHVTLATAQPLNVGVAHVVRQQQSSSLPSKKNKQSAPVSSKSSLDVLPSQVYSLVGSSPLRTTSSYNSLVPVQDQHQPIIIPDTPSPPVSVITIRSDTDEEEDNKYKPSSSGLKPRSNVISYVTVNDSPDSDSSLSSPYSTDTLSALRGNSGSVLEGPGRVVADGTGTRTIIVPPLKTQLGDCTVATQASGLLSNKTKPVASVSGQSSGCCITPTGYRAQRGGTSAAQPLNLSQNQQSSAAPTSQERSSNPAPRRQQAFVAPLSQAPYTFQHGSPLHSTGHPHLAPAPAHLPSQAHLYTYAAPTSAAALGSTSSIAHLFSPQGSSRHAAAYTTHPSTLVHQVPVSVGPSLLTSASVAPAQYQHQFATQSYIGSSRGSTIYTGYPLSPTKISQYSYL

[8] = molecular target: Rho-associated protein kinase 1 (Homo sapiens) (UniProt Q13464); test: Inhibition of ROCK1 (unknown origin) assessed as residual activity at 100 nM by KINOMEscan analysis relative to control
Chain of Rho-associated protein kinase 1 (Homo sapiens) (Q13464 2-1354 limits assumed): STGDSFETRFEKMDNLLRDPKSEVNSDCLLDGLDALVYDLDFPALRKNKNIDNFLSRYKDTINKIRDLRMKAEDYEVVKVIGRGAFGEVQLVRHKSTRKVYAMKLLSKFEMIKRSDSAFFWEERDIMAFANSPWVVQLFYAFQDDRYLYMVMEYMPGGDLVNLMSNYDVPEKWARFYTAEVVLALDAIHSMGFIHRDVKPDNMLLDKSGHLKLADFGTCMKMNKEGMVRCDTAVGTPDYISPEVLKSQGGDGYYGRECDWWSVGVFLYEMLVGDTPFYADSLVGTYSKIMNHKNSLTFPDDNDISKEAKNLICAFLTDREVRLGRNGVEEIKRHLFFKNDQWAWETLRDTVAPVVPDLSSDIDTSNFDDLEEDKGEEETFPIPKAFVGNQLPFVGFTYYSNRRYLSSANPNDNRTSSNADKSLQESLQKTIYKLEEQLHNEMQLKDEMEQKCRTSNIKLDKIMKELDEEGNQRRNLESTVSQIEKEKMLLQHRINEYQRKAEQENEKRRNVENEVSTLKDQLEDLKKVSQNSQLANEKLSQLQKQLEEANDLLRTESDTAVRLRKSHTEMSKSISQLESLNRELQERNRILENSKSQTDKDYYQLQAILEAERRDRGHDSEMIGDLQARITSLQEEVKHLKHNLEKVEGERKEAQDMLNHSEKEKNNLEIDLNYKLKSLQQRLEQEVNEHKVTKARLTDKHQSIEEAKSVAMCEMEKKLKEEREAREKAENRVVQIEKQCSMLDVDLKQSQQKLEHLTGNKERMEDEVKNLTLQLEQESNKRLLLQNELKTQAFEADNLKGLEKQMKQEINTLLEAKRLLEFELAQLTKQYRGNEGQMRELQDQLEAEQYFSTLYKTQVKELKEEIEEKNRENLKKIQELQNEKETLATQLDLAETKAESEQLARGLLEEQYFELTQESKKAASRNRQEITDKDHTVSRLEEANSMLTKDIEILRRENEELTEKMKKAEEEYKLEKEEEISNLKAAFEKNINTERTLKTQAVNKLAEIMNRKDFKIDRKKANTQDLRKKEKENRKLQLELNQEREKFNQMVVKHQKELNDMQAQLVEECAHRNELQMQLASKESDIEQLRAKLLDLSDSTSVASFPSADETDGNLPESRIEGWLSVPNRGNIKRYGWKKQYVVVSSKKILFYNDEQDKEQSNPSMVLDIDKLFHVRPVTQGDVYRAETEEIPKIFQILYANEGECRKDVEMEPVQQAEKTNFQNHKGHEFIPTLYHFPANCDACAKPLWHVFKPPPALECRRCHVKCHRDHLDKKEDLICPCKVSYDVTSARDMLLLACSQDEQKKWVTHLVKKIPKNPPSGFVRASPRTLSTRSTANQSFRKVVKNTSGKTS

[9] = molecular target: T2, Serine/threonine-protein kinase PknB (Mycobacterium tuberculosis) (UniProt P9WI81); test: Inhibition of Mycobacterium tuberculosis PKNB assessed as residual activity at 100 nM by KINOMEscan analysis relative to control
T2 sequence (whole entry): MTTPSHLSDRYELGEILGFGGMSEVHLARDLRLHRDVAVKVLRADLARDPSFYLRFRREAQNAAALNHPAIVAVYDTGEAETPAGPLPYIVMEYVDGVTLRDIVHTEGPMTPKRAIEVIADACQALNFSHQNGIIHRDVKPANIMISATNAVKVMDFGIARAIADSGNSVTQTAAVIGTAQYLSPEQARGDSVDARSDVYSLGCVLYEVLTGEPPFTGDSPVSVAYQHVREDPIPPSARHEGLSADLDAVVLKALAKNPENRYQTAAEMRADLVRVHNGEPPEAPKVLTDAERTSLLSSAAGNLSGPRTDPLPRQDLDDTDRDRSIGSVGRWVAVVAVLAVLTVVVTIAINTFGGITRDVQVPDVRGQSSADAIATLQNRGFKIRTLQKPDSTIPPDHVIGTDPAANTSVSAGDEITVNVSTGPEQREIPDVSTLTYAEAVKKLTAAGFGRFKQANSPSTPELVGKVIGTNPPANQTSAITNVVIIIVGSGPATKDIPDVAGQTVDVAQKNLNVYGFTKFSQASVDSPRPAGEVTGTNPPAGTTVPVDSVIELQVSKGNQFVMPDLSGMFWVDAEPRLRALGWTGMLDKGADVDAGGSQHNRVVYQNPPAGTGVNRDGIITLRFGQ

[10] = molecular target: T3, Serine/threonine-protein kinase Nek9 (Homo sapiens) (UniProt Q8TD19); test: Inhibition of NEK9 (unknown origin) assessed as residual activity at 100 nM by KINOMEscan analysis relative to control
T3 sequence (whole entry): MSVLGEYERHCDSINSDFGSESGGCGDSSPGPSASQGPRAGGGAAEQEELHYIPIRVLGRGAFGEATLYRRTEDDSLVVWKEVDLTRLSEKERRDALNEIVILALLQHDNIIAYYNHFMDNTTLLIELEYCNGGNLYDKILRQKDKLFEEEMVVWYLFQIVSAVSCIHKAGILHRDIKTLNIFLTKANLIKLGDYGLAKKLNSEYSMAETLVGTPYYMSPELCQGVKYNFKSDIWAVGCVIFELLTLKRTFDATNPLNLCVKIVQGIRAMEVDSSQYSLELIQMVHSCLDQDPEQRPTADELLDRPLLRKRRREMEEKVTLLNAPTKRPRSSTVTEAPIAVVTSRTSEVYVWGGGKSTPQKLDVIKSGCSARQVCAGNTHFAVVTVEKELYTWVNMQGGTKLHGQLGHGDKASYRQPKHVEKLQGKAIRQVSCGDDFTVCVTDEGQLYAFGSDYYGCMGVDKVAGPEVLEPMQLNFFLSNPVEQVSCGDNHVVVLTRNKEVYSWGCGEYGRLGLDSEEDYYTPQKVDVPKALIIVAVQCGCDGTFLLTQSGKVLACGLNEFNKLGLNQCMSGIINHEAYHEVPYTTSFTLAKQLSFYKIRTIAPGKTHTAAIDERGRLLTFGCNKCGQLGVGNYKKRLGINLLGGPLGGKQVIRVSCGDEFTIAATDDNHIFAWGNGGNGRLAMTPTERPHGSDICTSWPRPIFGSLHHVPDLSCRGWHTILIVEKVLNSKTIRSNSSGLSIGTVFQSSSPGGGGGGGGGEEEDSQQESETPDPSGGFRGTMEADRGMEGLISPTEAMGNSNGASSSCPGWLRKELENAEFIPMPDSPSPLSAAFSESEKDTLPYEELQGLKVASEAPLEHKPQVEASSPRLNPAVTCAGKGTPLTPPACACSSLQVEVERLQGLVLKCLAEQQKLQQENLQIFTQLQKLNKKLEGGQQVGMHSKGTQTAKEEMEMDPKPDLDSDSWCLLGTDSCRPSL

Question: For `COc1cc2ncnc(N[C@H](C)c3cccc4ccccc34)c2cc1OC`, which Activity [1] is on record?
Answer: 100%

Question: What about the Activity [2] of the same compound?
Answer: 92%

Question: And the Activity [3]?
Answer: 72%

Question: And the Activity [4]?
Answer: 73%

Question: What about the Activity [5] of the same compound?
Answer: 96%

Question: And the inhibition (Homo sapiens)?
Answer: 52%

Question: And the Activity [6]?
Answer: 61%

Question: What about the Activity [7] of the same compound?
Answer: 75%

Question: And the Activity [8]?
Answer: 77%

Question: What about the Activity [9] of the same compound?
Answer: 96%

Question: And the Activity [10]?
Answer: 100%
